# Source: patent US20180353486A1, “METHODS AND PHARMACEUTICAL COMPOSITIONS FOR THE TREATMENT OF DARIER DISEASE” (INSERM (Institut National de la Sante et de la Recherche …, priority 2015, published 2018)
# Key:
# [1] = system: NFATc1 nuclear localization in Darier keratinocytes (DKs); assay: NFATc1 nuclear/cytoplasmic localization by western blot in Darier keratinocytes; type: cell-based, human; conditions: 100 ng/ml Tacrolimus, 24 hours
# Experimental: Nuclear (N) and cytoplasmic (C) cell extracts were immunoblotted for NFATc1 and actin for normalization.
# Therefore, we treated healthy keratinocytes and DKs with 10 μM of CsA or 100 ng/ml of Tacrolimus for 24 hours. Western blot experiments using a specific antibody directed against NFATc1 were performed on nuclear and cytosolic extracts.
# [2] = system: LCE3D, LCE3E, SPRR2B, SPRR2D and loricrin in Darier keratinocytes (DKs); assay: Expression of EDC differentiation genes (qRT-PCR, western blot) in Darier keratinocytes after NFATc1 inhibition; type: cell-based, human
# Experimental: FIG. 5: Calcineurin inhibitors and NFATc1 inhibition decreased premature differentiation in DK. Quantitative RT-PCR and western blot were performed on mRNA and protein extracts from five DKs after 48 h Tacrolimus (a-b) or 24 h and 48 h CsA treatment (b). For (a), results are expressed as fold repression compared to non-treated DK and are the mean+/−SEM of five DK. Results are representative of two independent experiments. Asterisks represent statistical significance versus the appropriate control in each case. *P<0.05 and***P<0.001 c. Relative efficiency of small interfering RNA (siRNA)-mediated NFATc1 silencing compared to scrambled control by quantitative PCR and western blotting. Decreased expression of differentiation genes after NFATc1 specific inhibition at mRNA (d). For (d), results are expressed as fold repression compared to DKs transfected with scrambled si-RNA and are the mean+/−SEM of four DK from one experiment.
# To substantiate the role of NFATc1 as an enhancer of EDC genes expression in DKs and TG-treated NKs grown in basal condition, we inhibited NFATc1 activation indirectly (using calcineurin inhibitors) and directly (using small interfering RNA-mediated NFATc1 silencing), in Darier keratinocytes.
# DKs maintained in proliferating conditions were treated with 100 ng ml^−1 of Tacrolimus for 24 hours.
# Darier disease = conditions: few isolated cases, when retinoids were not recommended; systemic Cyclosporin, topical Tacrolimus; cited from earlier work
# [3] = system: NFATc1 in normal keratinocytes (NKs); assay: NFATc1 expression and nuclear localization (qRT-PCR, western blot) in thapsigargin-treated normal keratinocytes; type: cell-based, human; conditions: 1 μM TG
# Experimental: (§1) FIG. 4: TG-treated NK display the same features as DK. NKs were pretreated (TG) or not (−) with 1 μM of TG for 24 hours. a-b. […] Reversion by CsA treatment. c-d. TG-treated NK display premature differentiation markers up-regulation. SPRR2, LCE3B-E and loricrin expression is induced after 24 h (TG24) and 48 h (TG48) of TG-treatment in NK. *P<0.05. Results are from NKs from two donors (a) and one donor (b-d) and are representative of two independent experiments from two NKs.
# To test whether loss of SERCA2 function is sufficient to induce NFATc1 overexpression and activation associated with premature expression of EDC genes, NKs were treated with 1 μM of thapsigargin (TG), a SERCA pumps inhibitor, for 24 and/or 48 hours to mimick SERCA2 dysfunction in DK.
# [4] = system: LCE3D, LCE3E, SPRR2B, SPRR2D and loricrin in normal keratinocytes (NKs); assay: Expression of EDC differentiation genes (qRT-PCR, western blot) in thapsigargin-treated normal keratinocytes; type: cell-based, human; conditions: 1 μM TG, 24 and/or 48 hours
# Experimental: as §1
# In order to confirm that upregulation of differentiation genes is due to SERCA2 defect, qRT-PCR and western blot analysis were performed on TG-treated NKs.
SMILES,NFATc1 localization in nuclear and cytosolic extracts (western blot) [1],"Expression of LCE3D, LCE3E, SPRR2B, SPRR2D and loricrin (quantitative RT-PCR) ([2]; DKs in proliferating conditions, 100 ng ml^−1 Tacrolimus, 24 hours)","LCE3B-E, SPRR2 and loricrin protein expression (western blot) ([2]; DKs, Tacrolimus treatment)",Treatment of Darier disease in patients (Darier disease),NFATc1 expression (quantitative RT-PCR) ([3]; 24 hours),NFATc1 protein in nuclear extracts (western blot) ([3]; vs non-treated NKs),"Expression of LCE3D, LCE3E, SPRR2B, SPRR2D and loricrin transcripts and proteins (qRT-PCR, western blot) [4]"
C=CC[C@@H]1/C=C(\C)C[C@H](C)C[C@H](OC)[C@H]2O[C@@](O)(C(=O)C(=O)N3CCCC[C@H]3C(=O)O[C@H](/C(C)=C/[C@@H]3CC[C@@H](O)[C@H](OC)C3)[C@H](C)[C@@H](O)CC1=O)[C@H](C)C[C@@H]2OC [Tacrolimus],induced NFATc1 translocation from the nucleus to the cytoplasm,significantly decreased,"reduced LCE3B-E, SPRR2 and loricrin expression",successfully used,–,–,–
"C/C=C(/C)C(=O)O[C@H]1C(C)=C2[C@H]([C@@H]1OC(=O)CCCCCCC)[C@@](C)(OC(C)=O)C[C@H](OC(=O)CCC)[C@@]1(O)[C@H]2OC(=O)[C@@]1(C)O [TG, thapsigargin]",–,–,–,–,increased NFATc1 expression,a higher amount of NFATc1 protein was located in the nucleus,increased expression
